Test results published in patent US20220168310A1, “INHIBITION OF ADENOVIRUS WITH FILOCICLOVIR” (Microbiotix, Inc., priority 2019, published 2022).
“Also recorded” adds a separate entry of the source.

Tests used:
[1] = tested on: adenovirus 4 (AdV4); assay: Efficacy against adenovirus 4 (data not shown)
[2] = tested on: Human AdV6; assay: Low dose filociclovir against intravenously administered AdV6 in immunosuppressed hamsters (Example 6); conditions: for AdV6-induced liver damage, serum transaminase (ALT) / AdV6 replication in the liver: 5 days post challenge; for AdV6 replication in the liver: TCID50
Method: Three dose levels were tested: 1, 3, and 10 mg/kg p.o. q.d.
All hamsters were immunosuppressed using cyclophosphamide (CP) administered intraperitoneally at a dose of 140 mg/kg, and then twice weekly at a dose of 100 mg/kg. Filociclovir in powdered form was suspended in 0.4% carboxymethyl cellulose (Sigma C5678) at 0.1, 0.3, and 1.0 mg/ml and sonicated to visual homogeneity. Filociclovir was made up once weekly, aliquoted into daily portions, and stored at 4° C. Aliquots were allowed to equilibrate to room temperature before dosing.
Hamsters were distributed into 7 groups, 15 hamsters/group (see Table 4), immunosuppressed as described above, and injected i.v. with vehicle (Groups 1-2) or 4×10^10 PFU/kg of AdV6 (Groups 3-7). Groups 1 and 3 received drug vehicle (p.o. q.d.), Groups 2 and 6 received 10 mg/kg filociclovir (p.o. q.d.), Group 4 received 3 mg/kg filociclovir (p.o. q.d.), Group 5 received 1 mg/kg filociclovir (p.o. q.d.), and Group 7 received cidofovir (one dose of 37 mg/kg, followed by 20 mg/kg doses 3 times weekly). For all groups, drug administration started 1 day before challenge, and continued according to the schedule above for the duration of the study.
The body weights and any signs of morbidity of the animals were monitored and recorded daily. At 5 days post challenge, 5 hamsters (designated at the start of the experiment) from each group were sacrificed, and gross pathological observation was performed. Serum and liver were collected and virus burden in liver was determined by TCID50 assay and the serum was analyzed for transaminase levels. The remaining 10 hamsters were sacrificed at 14 days post challenge. Hamsters that became moribund before Day 14 were sacrificed as needed. In addition to the animals judged moribund by observation, we sacrificed all hamsters that lost more than 20% of their original body weight. For all animals, liver tissue was preserved in formalin for histopathological examination.

[3] = tested on: Adenovirus 5 (AdV5); assay: Cytopathic effects (CPE) reduction assay, AdV5 in HFF cells, 384-well; type: cell-based, human adenovirus
[4] = tested on: adenovirus 37 (AdV37); assay: Efficacy against adenovirus 37 (data not shown)
[5] = Cytotoxicity, CellTiter-Glo cell viability assay in HFF cells; conditions: human, human foreskin fibroblast (HFF) cell monolayers
Method: Human foreskin tissue was obtained from the University of Alabama at Birmingham tissue procurement facility with approval from the Institutional Review Board. The tissue was stored at 4° C. in cell culture medium consisting of minimum essential media (MEM) with Earle's salts supplemented with 10% fetal bovine serum (FBS; HyClone, Inc., Logan, Utah) and standard concentration of L-glutamine, amphotericin B (Fungizone), and vancomycin. The tissue was then placed in a phosphate-buffered saline solution, minced, and rinsed to remove the red blood cells. Tissue fragments were then resuspended in a trypsin-EDTA solution and incubated at 37° C. to disperse the cells, which were then collected by centrifugation. Cell pellets were then resuspended in 4 ml culture medium, placed in a 25-cm^2 tissue culture flask, and incubated at 37° C. for 24 h. The culture medium was then replaced with fresh medium and condition of the cells was monitored daily until a confluent cell monolayer was formed. The HFF cells were then expanded through serial passages in standard growth medium of MEM with Earle's salts supplemented with 10% FBS, L-glutamine, penicillin, and gentamicin. Each lot of cells was confirmed to be free of mycoplasma infection and routinely passaged or used for assays at or before passage 10.
Antiviral and cytotoxicity data were obtained in a series of three to five separate experiments for each virus to provide an accurate estimate of antiviral activity and statistical data. Each assay included positive and negative control compounds as well as infected and uninfected controls to ensure the integrity of the experiment.
The CPE reduction assays were performed in monolayers of human foreskin fibroblast (HFF) cells (5000/well) in 384-well plates in assay media consisting of MEM with Earle's salts, 2% FBS and standard concentrations of L-glutamine, penicillin and gentamycin. 5000 cells were seeded in 384-well microtiter plates and incubated at 37° C. in a humidified 5% CO2 incubator for 24 hours to allow for formation of confluent monolayers.
Cell monolayers were infected at a multiplicity of infection (MOI) of approximately 0.005 PFU/cell with virus strains including AdV5. […] Cytopathology was determined by the addition of CellTiter-Glo® reagent (Promega, Madison, Wis.). Concentrations of antiviral test compounds sufficient to reduce CPE by 50% (EC50) were interpolated from the experimental data using standard methods in Microsoft® Excel.

[6] = tested on: adenovirus 8 (AdV8); assay: CPE reduction assay, adenovirus 8; type: cell-based, human adenovirus; conditions: unidentified adenovirus, unit not given in Table 2 (Table 1 in μM)
Method: Similar experiments were carried out with filociclovir against adenovirus 6, adenovirus 7, and adenovirus 8.

[7] = tested on: AdV5; assay: Immunofluorescence assay (DBP and hexon staining), AdV5-infected A549 cells; type: cell-based, human adenovirus; conditions: 27 hours post-infection
Method: Human A549 cells on glass coverslips in 6-well plates were infected at an MOI of 5 PFU/cell with either AdV5 or AdV6 or were mock-infected. After 1 hour, filociclovir was added to a final concentration of 0, 4, 10, or 40 μM. At 27 hours post-infection, the A549 cells were fixed in paraformaldehyde (3.7% in PBS) and permeabilized with methanol. Cells were stained for the Adenovirus DNA-binding protein and adenovirus hexon. DBP staining will be […] and uniform during early AdV infection (prior to AdV DNA replication). DBP associates with replication centers as the infection progresses. The replication centers are initially small “dots” (each dot results from one incoming AdV genome). The replication centers will expand and “multiply” as DNA replication takes place. The nuclei become enlarged and misshapen as infection progresses. AdV hexon, the most abundant component of the AdV viral capsid, is not expressed until after DNA replication is taking place and is therefore considered to be a “late” AdV protein.

[8] = 10 mg/kg q.d., listed as filociclovir

SMILES: Nc1nc2c(ncn2/C=C2/CC2(CO)CO)c(=O)[nH]1 [FCV, 2-amino-9-{(Z)-[2,2-bis(hydroxymethyl)cyclopropylidene]methyl}-3,9-dihydro-6H-purin-6-one]
- treat or prevent infection [1]: effective
- mortality ([2]; 1 mg/kg p.o. q.d., p=0.0449): moderate yet significant
- AdV6-induced liver damage, serum transaminase (ALT) ([2]; 1 mg/kg q.d., listed as Filociclovir): ineffective
- AdV6-induced liver damage, serum transaminase (ALT) ([2]; 1 mg/kg q.d., listed as filociclovir): largely ineffective
- body weight loss ([2]; 1 mg/kg, listed as Filociclovir): not efficacious
- body weight loss ([2]; 1 mg/kg, listed as filociclovir): unable to mitigate weight loss
- mortality ([2]; 3 mg/kg q.d. p.o.): completely prevented mortality
- AdV6 replication in the liver ([2]; 3 mg/kg q.d. p.o., listed as filociclovir): suppressed virus replication to an intermediate level; also recorded: inhibits AdV6 replication in the liver
- AdV6-induced liver damage, serum transaminase (ALT) ([2]; 3 mg/kg, p=0.0419, listed as Filociclovir): mitigated the pathology
- AdV6-induced liver damage, serum transaminase (ALT) ([2]; 3 mg/kg, p=0.0419, listed as filociclovir): moderate yet significant effect
- body weight loss ([2]; 3 mg/kg, listed as Filociclovir): moderately efficacious
- body weight loss ([2]; 3 mg/kg, listed as filociclovir): partially reversed
- mortality ([2]; 10 mg/kg q.d. p.o.): completely prevented mortality
- AdV6 replication in the liver [2, 8]: inhibits AdV6 replication in the liver
- AdV6-induced liver damage, serum transaminase (ALT) ([2]; 10 mg/kg q.d., listed as Filociclovir): mitigated the pathology
- AdV6-induced liver damage, serum transaminase (ALT) [2, 8]: prevented AdV6-induced liver damage
- body weight of uninfected hamsters ([2]; 10 mg/kg, uninfected): did not result in body weight loss
- body weight loss ([2]; 10 mg/kg, listed as Filociclovir): completely prevented body weight loss
- body weight loss ([2]; 10 mg/kg, listed as filociclovir): completely reversed
- toxic effects in treated hamsters ([2]; 1, 3, 10 mg/kg p.o. q.d.): No toxic effects were observed
- treatment-related deaths ([2]; AdV6+1 mg/kg group (9 in AdV6+Vehicle)): 5
- hamsters with mottled liver and enlarged gall bladder ([2]; AdV6+1 mg/kg, Day 5 sacrifice (4 in AdV6+Vehicle)): 3
- concentration as low as which is effective to reduce AdV replication ([3]; FIG. 1, AdV5): 0.2 µM
- EC50 ([3]; Human mastadenovirus C, AdV5, HFF cells, 384 well CPE, average and SD from five independent experiments, read-out: EC50): 2.2 ± 0.4 µM
- treat or prevent infection [4]: effective
- CC50 ([5]; CC50, AdV6 line of Table 2, unit inferred): > 100 µM
- CC50 ([5]; CC50, AdV7 line of Table 2, unit inferred): > 150 µM
- CC50 ([5]; CC50, AdV8 line of Table 2, unit inferred): > 150 µM
- CC50 ([5]; CC50, HFF cells, run with AdV5 assay, average and SD from five independent experiments): 95 ± 10.6 µM
- CC50 ([5]; mammalian cytotoxicity (CC50), summary statement, 'preferably'): 100 to 150 µM
- EC50 [6]: 2.45 µM
- hexon-positive cells ([7]; AdV5, 4 μM): Some hexon-positive cells
- hexon-positive cells ([7]; AdV5, 10 μM): extremely few hexon-positive cells
- hexon-positive cells ([7]; AdV5, 40 μM): No hexon-positive cells
